Test results reported in patent US6534035B1, “Methods of inhibiting clot formation” (President and Fellows of Harvard College, priority 1998, dated 2003).
Peptide text beside a SMILES is read from it. * marks the point of attachment. Biotin = O=C1N[C@H]2[C@H](CS[C@H]2CCCCC(=O)*)N1

Assays:
FXIIIa = target: T1, FXIIIa (Homo sapiens, UniProt P00488); assay: FXIIIa catalytic half-life: crosslinking of substrates into fibrin clots of various ages; format: biochemical; conditions: substrate added to 2 or 4 hour old clots
T1 construct: purchased American Diagnostica
T1 sequence (P00488 39-732 limits assumed): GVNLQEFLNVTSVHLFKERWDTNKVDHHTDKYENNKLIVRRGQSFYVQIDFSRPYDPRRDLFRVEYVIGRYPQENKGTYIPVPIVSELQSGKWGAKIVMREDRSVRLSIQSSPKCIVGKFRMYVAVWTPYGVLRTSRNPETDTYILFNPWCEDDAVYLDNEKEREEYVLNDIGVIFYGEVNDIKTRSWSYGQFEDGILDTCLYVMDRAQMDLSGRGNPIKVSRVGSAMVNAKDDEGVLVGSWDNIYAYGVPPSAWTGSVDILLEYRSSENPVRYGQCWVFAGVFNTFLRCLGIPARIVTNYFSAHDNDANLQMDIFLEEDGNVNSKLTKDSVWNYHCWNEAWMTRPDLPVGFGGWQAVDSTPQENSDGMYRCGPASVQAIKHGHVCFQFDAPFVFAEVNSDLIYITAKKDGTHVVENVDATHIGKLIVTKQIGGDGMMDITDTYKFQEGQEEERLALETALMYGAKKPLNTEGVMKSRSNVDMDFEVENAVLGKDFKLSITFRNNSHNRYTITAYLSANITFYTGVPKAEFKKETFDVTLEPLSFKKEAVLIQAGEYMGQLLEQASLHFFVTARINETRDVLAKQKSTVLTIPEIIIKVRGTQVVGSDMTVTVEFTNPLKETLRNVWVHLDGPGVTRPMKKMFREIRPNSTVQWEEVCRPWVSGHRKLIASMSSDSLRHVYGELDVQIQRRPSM
Protocol: Experiments were performed to determine how long FXIIIa in clots could crosslink various substrates such as human ^125I -α2AP, α2AP13-24 (SEQ ID NO:2), and 5-(biotinamido)pentylamine, into fibrin. In a typical experiment, clots were prepared (50 μl final volume) in duplicate by combining fibrinogen (2 mg/ml final), CaCl2 (2 mM final), buffer (Tris-buffered saline pH 7.4) and thrombin (1 U/ml) and incubating at 37° C. Synchronous with the addition of thrombin, or up to 240 minutes afterwards, the FXIIIa substrates 5-(biotinamido)pentylamine (0.5 mM final), ^125I -α2AP (70 μg/ml final), and α2AP13-24 (0 to 1 mM final) were mixed and added to the clot. In one set of control samples, FXIIIa was inhibited with iodoacetamide (10 mg/ml) prior to the addition of substrate; to another set, no substrate was added. After 2 hours of incubation at 37° C., iodoacetamide (10 mg/ml) was added to stop the reaction. The tubes were then centrifuged at 14,000 rpm for 2 minutes, washed and compressed in 1 ml saline to remove unbound proteins, and centrifuged again at 14,000 rpm for 2 minutes. After removal of the supernatant, the clots were solubilized in 100 μL of 9M urea, pH 9.0 at 37° C. for 60 minutes. Then 100 μl of SDS reducing sample buffer was added and the clots were placed at 85° C. for 30 minutes until fully solubilized. The samples were examined by SDS-PAGE. Crosslinked ^125I-α2AP was detected and quantitated by phosphorimaging. Samples containing crosslinked α2AP13-24 and pentylamine substrates were electroblotted to PVDF membranes and detected by ^125I-streptavidin followed by phosphorimaging or by streptavidin-peroxidase followed by the developing agents 5-bromo-4-chloro-3-indolyl phosphate-nitro blue tetrazolium using methods known in the art. In experiments examining the effect of specific amino acid residues on the crosslinking of the α2AP13-24 peptide (SEQ ID NO:2) to fibrin, crosslinking was detected by immunoblotting with an anti-peptide antibody directed against this epitope followed by ^125I-protein A and phosphorimaging. […]

[1] = target: T2, guinea pig tissue transglutaminase (Cavia cutleri, UniProt P08587); assay: Crosslinking of α2AP13-24 into fibrin by tissue transglutaminase; format: biochemical; conditions: purified tissue transglutaminase (100 nM) added to FXIIIa-deficient fibrinogen
T2 sequence (P08587 1-690): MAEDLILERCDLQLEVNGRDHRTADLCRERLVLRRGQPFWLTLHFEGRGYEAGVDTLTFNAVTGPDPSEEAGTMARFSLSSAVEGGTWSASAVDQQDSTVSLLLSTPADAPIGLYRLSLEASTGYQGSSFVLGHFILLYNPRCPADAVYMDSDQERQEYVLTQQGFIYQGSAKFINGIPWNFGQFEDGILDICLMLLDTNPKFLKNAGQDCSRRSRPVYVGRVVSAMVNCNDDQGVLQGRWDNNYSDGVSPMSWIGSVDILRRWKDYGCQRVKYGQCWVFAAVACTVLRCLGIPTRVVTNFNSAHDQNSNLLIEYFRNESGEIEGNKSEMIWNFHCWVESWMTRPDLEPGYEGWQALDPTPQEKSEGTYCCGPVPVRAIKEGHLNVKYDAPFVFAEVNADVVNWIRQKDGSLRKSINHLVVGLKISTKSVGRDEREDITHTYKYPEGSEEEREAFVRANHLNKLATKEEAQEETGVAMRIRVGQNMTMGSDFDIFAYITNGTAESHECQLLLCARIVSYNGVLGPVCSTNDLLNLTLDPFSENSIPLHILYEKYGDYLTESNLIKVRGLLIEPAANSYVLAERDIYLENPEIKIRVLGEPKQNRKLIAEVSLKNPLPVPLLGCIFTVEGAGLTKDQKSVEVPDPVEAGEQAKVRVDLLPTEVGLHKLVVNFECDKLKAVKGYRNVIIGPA
Protocol: Fibrin clots (50 μl) were prepared in duplicate by mixing FXIII-free fibrinogen (2 mg/ml final), α2AP13-24 (SEQ ID NO:2; 0.5 mM final), CaCl2 (2 mM final), human plasma FXIII (100 nM/L final) and guinea pig tissue transglutaminase (100 nM/L final) and thrombin (1 U/ml final) and incubating at 37° C. for 2 hours. The crosslinking of α2AP13-24 was detected as described above.

For `CC(C)C[C@H](NC(=O)[C@H](CC(C)C)NC(=O)[C@@H](NC(=O)[C@H](CC(C)C)NC(=O)[C@@H]1CCCN1C(=O)[C@H](CO)NC(=O)[C@@H](NC(=O)[C@H](CCC(N)=O)NC(=O)[C@H](CCC(=O)O)NC(=O)[C@H](CCC(N)=O)NC(=O)[C@@H](N)CC(N)=O)C(C)C)[C@@H](C)O)C(=O)N[C@@H](CCCCNC(=O)CCCC[C@@H]1SC[C@@H]2NC(=O)N[C@@H]21)C(=O)O` [α2AP13-24, NQEQVSPLTLLK] (H-NQEQVSPLTLLK(Biotin)-OH), the “residual FXIIIa crosslinking of substrate” value (FXIIIa) was “little residual FXIIIa crosslinking” and the “crosslinking of peptide to fibrin” value [1] was “slight increase in crosslinking”.
